Holding throughout (assay type): functional
Experiment [1] deals with Enterobacter cloacae. Nature of the experiment: Tested in vitro for antimicrobial activity against Enterobacter cloacae CL 4298; value ranges from 4-8 ug/mL.
Experiment [2] has as its system Escherichia coli. Nature of the experiment: Tested in vitro for antimicrobial activity against Escherichia coli MB 2884; value ranges from 8-16 ug/mL.
The subject of experiment [3] is Enterococcus faecalis. Nature of the experiment: Tested in vitro for antimicrobial activity against Enterococcus faecalis MB 5407; value ranges from 4-8 ug/mL.
For experiment [4], the system named is Haemophilus influenzae. Nature of the experiment: Tested in vitro for antimicrobial activity against Haemophilus influenzae MB 5363; value ranges from 4-8 ug/mL.
Experiment [5] relates to Klebsiella pneumoniae. Nature of the experiment: Tested in vitro for antimicrobial activity against Klebsiella pneumoniae MB 4005.
In experiment [6] the test system is Staphylococcus haemolyticus. Kind of experiment: Tested in vitro for antimicrobial activity against Staphylococcus haemolyticus MB 5412; value ranges from 0.5-1 ug/mL.
Experiment [7] deals with Staphylococcus aureus. Nature of the experiment: Tested in vitro for antimicrobial activity against Staphylococcus aureus MB 2865; value ranges from 2-4 ug/mL.
For experiment [8], the system named is Streptococcus pyogenes. Kind of experiment: Tested in vitro for antimicrobial activity against Streptococcus pyogenes MB 2874; value ranges from 0.03-0.06 ug/mL.
Experiment [9] relates to Streptococcus pyogenes. Kind of experiment: Tested in vitro for antimicrobial activity against constitutively macrolide resistant Streptococcus pyogenes MB 5403.
Experiment [10] concerns Streptococcus pyogenes. Kind of experiment: Tested in vitro for antimicrobial activity against inducibly macrolide resistant Streptococcus pyogenes MB 5406; value ranges from 8-16 ug/mL.
Experiment [11] relates to Enterobacter cloacae. Kind of experiment: Tested in vitro for antimicrobial activity against Enterobacter cloacae CL 4298; value ranges from 32-64 ug/mL.
For experiment [12], the system named is Enterococcus faecalis. Kind of experiment: Tested in vitro for antimicrobial activity against Enterococcus faecalis MB 5407; value ranges from 1-2 ug/mL.
Experiment [13] concerns Escherichia coli. Nature of the experiment: Tested in vitro for antimicrobial activity against Escherichia coli MB 2884; value ranges from 32-64 ug/mL.
In experiment [14] the test system is Klebsiella pneumoniae. Kind of experiment: Tested in vitro for antimicrobial activity against Klebsiella pneumoniae MB 4005; value ranges from 32-64 ug/mL.
Experiment [15] deals with Staphylococcus haemolyticus. Kind of experiment: Tested in vitro for antimicrobial activity against Staphylococcus haemolyticus MB 5412.
The test system of experiment [16] is Staphylococcus aureus. Nature of the experiment: Tested in vitro for antimicrobial activity against Staphylococcus aureus MB 2865; value ranges from 0.25-0.5 ug/mL.
In experiment [17] the test system is Streptococcus pyogenes. Kind of experiment: Tested in vitro for antimicrobial activity against inducibly macrolide resistant Streptococcus pyogenes MB 5406.
Experiment [18] deals with Enterococcus faecalis. Kind of experiment: Tested in vitro for antimicrobial activity against Enterococcus faecalis MB 5407; value ranges from 2-4 ug/mL.
In experiment [19] the test system is Haemophilus influenzae. Nature of the experiment: Tested in vitro for antimicrobial activity against Haemophilus influenzae MB 5363; value ranges from 1-4 ug/mL.
Experiment [20] has as its system Klebsiella pneumoniae. Nature of the experiment: Tested in vitro for antimicrobial activity against Klebsiella pneumoniae MB 4005; value ranges from 1-2 ug/mL.
The test system of experiment [21] is Staphylococcus haemolyticus. Kind of experiment: Tested in vitro for antimicrobial activity against Staphylococcus haemolyticus MB 5412; value ranges from 0.125-0.25 ug/mL.
For experiment [22], the system named is Staphylococcus aureus. Nature of the experiment: Tested in vitro for antimicrobial activity against Staphylococcus aureus MB 2865; value ranges from 0.5-1 ug/mL.
Experiment [23] relates to Enterobacter cloacae. Kind of experiment: Tested in vitro for antimicrobial activity against Enterobacter cloacae CL 4298; value ranges from 0.5-2 ug/mL.
Experiment [24] has as its system Escherichia coli. Kind of experiment: Tested in vitro for antimicrobial activity against Escherichia coli MB 2884; value ranges from 1-2 ug/mL.
Experiment [25] relates to Enterobacter cloacae. Nature of the experiment: Tested in vitro for antimicrobial activity against Enterobacter cloacae CL 4298; value ranges from 64->128 ug/mL.
The subject of experiment [26] is Enterococcus faecalis. Kind of experiment: Tested in vitro for antimicrobial activity against Enterococcus faecalis MB 5407; value ranges from 64-128 ug/mL.
Experiment [27] has as its system Escherichia coli. Nature of the experiment: Tested in vitro for antimicrobial activity against Escherichia coli MB 2884; value ranges from 64->128 ug/mL.
In experiment [28] the test system is Haemophilus influenzae. Nature of the experiment: Tested in vitro for antimicrobial activity against Haemophilus influenzae MB 5363; value ranges from 32->128 ug/mL.
For experiment [29], the system named is Klebsiella pneumoniae. Nature of the experiment: Tested in vitro for antimicrobial activity against Klebsiella pneumoniae MB 4005; value ranges from 64->128 ug/mL.
The subject of experiment [30] is Staphylococcus aureus. Nature of the experiment: Tested in vitro for antimicrobial activity against Staphylococcus aureus MB 2865; value ranges from 16-64 ug/mL.
For experiment [31], the system named is Streptococcus pyogenes. Nature of the experiment: Tested in vitro for antimicrobial activity against Streptococcus pyogenes MB 2874; value ranges from 1-4 ug/mL.
The test system of experiment [32] is Staphylococcus haemolyticus. Nature of the experiment: Tested in vitro for antimicrobial activity against Staphylococcus haemolyticus MB 5412; value ranges from 8-32 ug/mL.
In experiment [33] the test system is Enterobacter cloacae. Kind of experiment: Tested in vitro for antimicrobial activity against Enterobacter cloacae CL 4298.
Experiment [34] concerns Escherichia coli. Nature of the experiment: Tested in vitro for antimicrobial activity against Escherichia coli MB 2884.
Experiment [35] deals with Klebsiella pneumoniae. Nature of the experiment: Tested in vitro for antimicrobial activity against Klebsiella pneumoniae MB 4005; value ranges from 2-4 ug/mL.
The subject of experiment [36] is Staphylococcus haemolyticus. Nature of the experiment: Tested in vitro for antimicrobial activity against Staphylococcus haemolyticus MB 5412; value ranges from 0.25-0.5 ug/mL.
In experiment [37] the test system is Staphylococcus aureus. Nature of the experiment: Tested in vitro for antimicrobial activity against Staphylococcus aureus MB 2865.
Experiment [38] deals with Streptococcus pyogenes. Kind of experiment: Tested in vitro for antimicrobial activity against inducibly macrolide resistant Streptococcus pyogenes MB 5406; value ranges from 16-32 ug/mL.
Experiment [39] deals with Enterobacter cloacae. Kind of experiment: Tested in vitro for antimicrobial activity against Enterobacter cloacae CL 4298; value ranges from 2-4 ug/mL.
For experiment [40], the system named is Escherichia coli. Kind of experiment: Tested in vitro for antimicrobial activity against Escherichia coli MB 2884; value ranges from 2-4 ug/mL.
Experiment [41] concerns Haemophilus influenzae. Kind of experiment: Tested in vitro for antimicrobial activity against Haemophilus influenzae MB 5363; value ranges from 2-4 ug/mL.
Experiment [42] concerns Staphylococcus aureus. Nature of the experiment: Tested in vitro for antimicrobial activity against Staphylococcus aureus MB 2865; value ranges from 0.25-1 ug/mL.

SMILES strings stand for the structures. Values after ≈ are worked out from the molar mass of the structure shown.

With `CC[C@H]1OC(=O)[C@H](C)[C@@H](O[C@H]2C[C@@](C)(OC)[C@@H](O)[C@H](C)O2)[C@H](C)[C@@H](O[C@@H]2O[C@H](C)C[C@H](N(C)C)[C@H]2O)[C@](C)(O)C[C@@H](C)N(C)C/C(C)=C/[C@]1(C)O`, the MIC against Enterobacter cloacae [1] worked out at 4 µg/mL (≈ 5.47 µM); in the experiment on Escherichia coli [2] it was 8 µg/mL (≈ 10.9 µM); in the experiment with Enterococcus faecalis [3], 4 µg/mL (≈ 5.47 µM); with Haemophilus influenzae [4], 4 µg/mL (≈ 5.47 µM); in the experiment with Klebsiella pneumoniae [5], 8 µg/mL (≈ 10.9 µM); in experiment [6] it was 0.5 µg/mL (≈ 0.684 µM). The MIC was 2 µg/mL (≈ 2.74 µM) against Staphylococcus aureus [7], 0.03 µg/mL (≈ 0.041 µM) against Streptococcus pyogenes [8], above 128 µg/mL in the experiment on Streptococcus pyogenes [9] and 8 µg/mL (≈ 10.9 µM) with Streptococcus pyogenes [10].
As for `CC[C@H]1OC(=O)[C@H](C)[C@@H](O[C@H]2C[C@@](C)(OC)[C@@H](O)[C@H](C)O2)[C@H](C)[C@@H](O[C@@H]2O[C@H](C)C[C@H](N(C)C)[C@H]2O)[C@](C)(O)C[C@@H](C)C(=O)[C@H](C)[C@@H](O)[C@]1(C)O` [ERYTHROMYCIN], the MIC amounted to 32 µg/mL (≈ 43.6 µM) against Enterobacter cloacae [11]; 1 µg/mL (≈ 1.36 µM) in the experiment on Enterococcus faecalis [12]; 32 µg/mL (≈ 43.6 µM) against Escherichia coli [13]; 4 µg/mL (≈ 5.45 µM) in the experiment on Haemophilus influenzae [4]; 32 µg/mL (≈ 43.6 µM) with Klebsiella pneumoniae [14]; 0.125 µg/mL (≈ 0.17 µM) in experiment [15]. Besides, the MIC was 0.25 µg/mL (≈ 0.341 µM) in the experiment on Staphylococcus aureus [16], 0.03 µg/mL (≈ 0.0409 µM) in the experiment on Streptococcus pyogenes [8], above 128 µg/mL against Streptococcus pyogenes [9] and 32 µg/mL (≈ 43.6 µM) in the experiment with Streptococcus pyogenes [17].
Consider `CC[C@H]1OC(=O)[C@H](C)[C@@H](O[C@H]2C[C@@](C)(OC)[C@@H](O)[C@H](C)O2)[C@H](C)[C@@H](O[C@@H]2O[C@H](C)C[C@H](N(C)C)[C@H]2O)[C@](C)(O)C[C@@H](C)N(C)C[C@H](C)[C@@H](O)[C@]1(C)O` [L-701677], for which the MIC against Enterococcus faecalis [18] turned out to be 2 µg/mL (≈ 2.67 µM); against Haemophilus influenzae [19], 1 µg/mL (≈ 1.34 µM); in the experiment on Klebsiella pneumoniae [20], 1 µg/mL (≈ 1.34 µM); in experiment [21], 0.125 µg/mL (≈ 0.167 µM); in the experiment with Staphylococcus aureus [22] it was 0.5 µg/mL (≈ 0.668 µM); in the experiment with Streptococcus pyogenes [8] it was 0.03 µg/mL (≈ 0.0401 µM). In addition, the MIC against Streptococcus pyogenes [9] is above 128 µg/mL; with Streptococcus pyogenes [10], 8 µg/mL (≈ 10.7 µM); with Enterobacter cloacae [23] it was 0.5 µg/mL (≈ 0.668 µM); against Escherichia coli [24] it was 1 µg/mL (≈ 1.34 µM).
In the case of `CC[C@H]1OC(=O)[C@H](C)[C@@H](O[C@H]2C[C@@](C)(OC)[C@@H](O)[C@H](C)O2)[C@H](C)[C@@H](O[C@@H]2O[C@H](C)C[C@H](N(C)C)[C@H]2O)[C@](C)(O)C[C@@H](C)/N=C2\O[C@]1(C)C=C2C`, the MIC stood at 64 µg/mL (≈ 89.8 µM) against Enterobacter cloacae [25]; 64 µg/mL (≈ 89.8 µM) in the experiment with Enterococcus faecalis [26]; 64 µg/mL (≈ 89.8 µM) in the experiment on Escherichia coli [27]; 32 µg/mL (≈ 44.9 µM) with Haemophilus influenzae [28]; 64 µg/mL (≈ 89.8 µM) against Klebsiella pneumoniae [29]; 16 µg/mL (≈ 22.4 µM) in the experiment on Staphylococcus aureus [30]. Besides, the MIC in the experiment on Streptococcus pyogenes [31] was 1 µg/mL (≈ 1.4 µM); with Streptococcus pyogenes [9], above 128 µg/mL; in the experiment on Streptococcus pyogenes [17], above 128 µg/mL; in [32] it was 8 µg/mL (≈ 11.2 µM).
Turning to `CC[C@H]1OC(=O)[C@H](C)[C@@H](O[C@H]2C[C@@](C)(OC)[C@@H](O)[C@H](C)O2)[C@H](C)[C@@H](O[C@@H]2O[C@H](C)C[C@H](N(C)C)[C@H]2O)[C@](C)(O)C[C@@H](C)N(C)C[C@H](C)C[C@]1(C)O`, the MIC is 2 µg/mL (≈ 2.73 µM) against Enterobacter cloacae [33]; 4 µg/mL (≈ 5.46 µM) in the experiment with Enterococcus faecalis [3]; 4 µg/mL (≈ 5.46 µM) in the experiment on Escherichia coli [34]; 4 µg/mL (≈ 5.46 µM) against Haemophilus influenzae [4]; 2 µg/mL (≈ 2.73 µM) in the experiment on Klebsiella pneumoniae [35]; 0.25 µg/mL (≈ 0.341 µM) in experiment [36]. Moreover, the MIC was 2 µg/mL (≈ 2.73 µM) against Staphylococcus aureus [37], 0.03 µg/mL (≈ 0.0409 µM) with Streptococcus pyogenes [8], above 128 µg/mL against Streptococcus pyogenes [9] and 16 µg/mL (≈ 21.8 µM) in the experiment on Streptococcus pyogenes [38].
For `CC[C@H]1OC(=O)[C@H](C)[C@@H](O[C@H]2C[C@@](C)(OC)[C@@H](O)[C@H](C)O2)[C@H](C)[C@@H](O[C@@H]2O[C@H](C)C[C@H](N(C)C)[C@H]2O)[C@](C)(O)C[C@@H](C)N(C)C[C@@H](C)C[C@]1(C)O`, the MIC against Enterobacter cloacae [39] is 2 µg/mL (≈ 2.73 µM); in the experiment with Enterococcus faecalis [18], 2 µg/mL (≈ 2.73 µM); with Escherichia coli [40] it was 2 µg/mL (≈ 2.73 µM); against Haemophilus influenzae [41], 2 µg/mL (≈ 2.73 µM); against Klebsiella pneumoniae [35], 2 µg/mL (≈ 2.73 µM); in experiment [21] it was 0.125 µg/mL (≈ 0.171 µM). For the same molecule, the MIC is 0.25 µg/mL (≈ 0.341 µM) against Staphylococcus aureus [42], 0.03 µg/mL (≈ 0.0409 µM) in the experiment on Streptococcus pyogenes [8], above 128 µg/mL in the experiment on Streptococcus pyogenes [9] and 8 µg/mL (≈ 10.9 µM) with Streptococcus pyogenes [10].

Values taken from ChEMBL document CHEMBL1126978, “Assessment of the biological value of the 11-hydroxy group of the azalides” (1993).
